Reference: patent publication US20250340519A1, “RADIOLABELLED COMPOUND” (OXFORD UNIVERSITY INNOVATION LIMITED, priority 2018, published 2025)
“And” between values parts separate entries of the source, which are not always exact repeats. Equal entries are not always repeated.

Legend:
[1] = system: Panc-1 xenograft; experiment: Ex vivo biodistribution in Panc-1 xenograft bearing mice; conditions: Panc-1 xenograft mice, 1 h p.i., individual animals
[2] = system: Capan-1 xenograft; experiment: Ex vivo biodistribution in Capan-1 xenograft bearing mice; conditions: for Ex vivo biodistribution Bone / Ex vivo biodistribution Kidney / Ex vivo biodistribution Large intestine / Ex vivo biodistribution Liver / Ex vivo biodistribution Muscle / Ex vivo biodistribution Pancreas / Ex vivo biodistribution Skin / Ex vivo biodistribution Small intestine / Ex vivo biodistribution Spleen / Ex vivo biodistribution Stomach: Capan-1 xenograft mice, 1 h p.i., individual animals; for tumour uptake (group mean): Capan-1 xenografts
Description: All animal procedures were performed in accordance with the UK Animals (Scientific Procedures) Act 1986 and with local ethical committee approval. Animals were housed in IVC cages in sex-matched groups up to 5 per cage, in an artificial day-night cycle facility, with ad libitum access to food and water. Tumour xenografts or allografts were generated by subcutaneous injection of PANC-1 or Capan-1 cell suspensions in the hind flank of balb/c nu/nu animals. CaNT xenografts were generated by harvesting CaNT tumours from donor animals, and injecting a tumour homogenate subcutaneously in the flank of wild type CBA/Carl mice. Tumours were irradiated (10 Gy, 2 Gy/min) using a 300 kV X-ray device.
Dynamic PET/CT images were acquired following an intravenous bolus administration of [^18F]-olaparib. Biodistribution studies, where selected tissues were harvested, were performed 1 h post injection. Some animals were also administered an excess of cold, unlabelled olaparib for evaluating the specificity of tumour uptake. EF5, a hypoxia-selective marker, was injected 2 h before culling of the animal. Digital autoradiography was performed on tumour sections. Image analysis was performed using PMOD.
Cells were harvested using trypsin, washed twice using PBS, and reconstituted in DMEM. Panc-1 or Capan-1 xenograft tumours were established in the right hind flank of female NOD/SCID mice (Charles River, UK) by subcutaneous injection of 1×10^6 cells in PBS:matrigel (150 μL). Tumour volumes (V) were calculated after calliper measurement using the following equation: V=(a^2×b)/2, where a is the width of the tumour and b the length (small and large diameters, respectively). The individual relative tumour volume (RTV) was defined as Vt/Vo, where Vt is the volume at a given time and Vo at the start of treatment. Animals were entered in in vivo studies when their tumour was at least 200 mm^3.
Two hours prior to PET/CT imaging, animals were exposed to X-irradiation of the tumour (10 Gy or sham) (see schedule in FIG. 13). Radiation was delivered using a Gulmay 320 kV X-irradiator; 2.0 Gy/min. Anaesthesia was maintained at 2.5% isoflurane throughout the duration of the irradiation, and animals were allowed to recover. To study the relationship of PARP1 expression, ^18F-olaparib uptake and hypoxia, animals were administered 0.6 μg in 200 μL (0.9% saline) intraperitoneally, one hour prior to PET/CT imaging. Naïve CBA/Carl mice, not bearing tumours, were not irradiated, nor was EF5 administered.
Dynamic PET/CT images were acquired using a VECTor ^4CT integrated PET/CT system. Mice were anaesthetised by 4% isoflurane gas (0.5 L/min O2) and placed on a custom-built imaging cradle in a prone position. Animals mice were intravenously injected with [^18F]-olaparib or (3-5 MBq, 8-11 GBq/μmol, through a tail vein catheter, and dynamic imaging was performed over 45-60 min after radiolabelled compound administration. PET acquisition (150 s per frame, using list mode acquisition) using an ultra-high resolution rat/mouse 1.8 mm collimator, followed by a cone-beam CT scan (55 kV, 0.19 mA) for anatomical reference and attenuation correction. Anaesthesia was maintained at 2.5% isoflurane throughout the duration of the image acquisition. PET images were reconstructed using U-SPECT-Rec3.22 software (MILabs, Utrecht, The Netherlands), applying a pixel-based algorithm with 8 subsets, 6 iterations and 0.8 mm voxel size for ^18F (energy window settings 477.9-584.1 keV).
After PET/CT image acquisition, animals were euthanized by cervical dislocation and selected organs, tissues and blood were removed. The amount of radioactivity in each organ was measured using a 2480 WIZARD^2 gamma counter (PerkinElmer). Counts per minute were converted into MBq using a calibration curve generated from known standards. Values were decay-corrected to the time of injection, and the percentage of the injected dose per gram (% ID/g) of each tissue was calculated.

`O=C(c1cc(Cc2n[nH]c(=O)c3ccccc23)ccc1[18F])N1CCN(C(=O)C2CC2)CC1` [[^18F]olaparib] was tested, and the “Ex vivo biodistribution Kidney” value ([1]; + IR (10 Gy)) was 10.0 % ID/g and 9.25 % ID/g and 10.6 % ID/g, the “Ex vivo biodistribution Large intestine” value ([1]; + IR (10 Gy)) was 27.5 % ID/g and 28.9 % ID/g and 16.2 % ID/g and the “Ex vivo biodistribution Liver” value ([1]; + IR (10 Gy)) was 25.1 % ID/g and 33.8 % ID/g and 45.7 % ID/g. The “Ex vivo biodistribution Pancreas” value ([1]; + IR (10 Gy)) was 13.6 % ID/g and 10.3 % ID/g and 11.4 % ID/g, the “Ex vivo biodistribution Spleen” value ([1]; + IR (10 Gy)) was 45.0 % ID/g and 20.5 % ID/g and 14.3 % ID/g and the “Ex vivo biodistribution Stomach” value ([1]; + IR (10 Gy)) was 4.15 % ID/g and 0.92 % ID/g and 0.87 % ID/g. For the same compound, the “Ex vivo biodistribution Bone” value ([1]; + block (excess cold olaparib)) was 1.06 % ID/g and 0.78 % ID/g and 0.80 % ID/g and 0.46 % ID/g, the “Ex vivo biodistribution Kidney” value ([1]; + block (excess cold olaparib)) was 13.1 % ID/g and 5.09 % ID/g and 3.98 % ID/g and 2.44 % ID/g and the “Ex vivo biodistribution Large intestine” value ([1]; + block (excess cold olaparib)) was 20.1 % ID/g and 13.3 % ID/g and 61.4 % ID/g and 12.7 % ID/g. For the same compound, the “Ex vivo biodistribution Liver” value ([1]; + block (excess cold olaparib)) was 29.1 % ID/g and 32.9 % ID/g and 22.4 % ID/g and 23.1 % ID/g, the “Ex vivo biodistribution Pancreas” value ([1]; + block (excess cold olaparib)) was 1.92 % ID/g and 2.29 % ID/g and 1.91 % ID/g and 1.79 % ID/g and the “Ex vivo biodistribution Small intestine” value ([1]; + block (excess cold olaparib)) was 89.9 % ID/g and 77.2 % ID/g and 96.4 % ID/g and 132 % ID/g. The “Ex vivo biodistribution Spleen” value ([1]; + block (excess cold olaparib)) was 1.62 % ID/g and 1.46 % ID/g and 1.24 % ID/g and 0.69 % ID/g, the “Ex vivo biodistribution Stomach” value ([1]; + block (excess cold olaparib)) was 1.44 % ID/g and 0.79 % ID/g and 0.46 % ID/g and 0.21 % ID/g and the “Ex vivo biodistribution Bone” value ([1]; tracer alone) was 3.38 % ID/g and 4.54 % ID/g. The “Ex vivo biodistribution Kidney” value ([1]; tracer alone) was 10.5 % ID/g and 7.95 % ID/g and 6.02 % ID/g and 7.04 % ID/g and 3.41 % ID/g and 3.66 % ID/g, the “Ex vivo biodistribution Large intestine” value ([1]; tracer alone) was 12.6 % ID/g and 30.5 % ID/g and 80.8 % ID/g and 27.0 % ID/g and 28.9 % ID/g and 6.61 % ID/g and the “Ex vivo biodistribution Liver” value ([1]; tracer alone) was 26.2 % ID/g and 34.6 % ID/g and 27.0 % ID/g and 21.0 % ID/g and 13.5 % ID/g and 18.0 % ID/g. For the same compound, the “Ex vivo biodistribution Pancreas” value ([1]; tracer alone) was 8.49 % ID/g and 9.38 % ID/g and 7.25 % ID/g and 5.52 % ID/g and 2.78 % ID/g and 4.24 % ID/g, the “Ex vivo biodistribution Small intestine” value ([1]; tracer alone) was 54.5 % ID/g and 58.1 % ID/g and 30.6 % ID/g and 31.9 % ID/g and 18.6 % ID/g and 26.6 % ID/g and the “Ex vivo biodistribution Spleen” value ([1]; tracer alone) was 17.5 % ID/g and 13.7 % ID/g and 11.3 % ID/g and 14.0 % ID/g and 7.36 % ID/g and 8.01 % ID/g. For the same compound, the “Ex vivo biodistribution Stomach” value ([1]; tracer alone) was 2.59 % ID/g and 3.53 % ID/g and 1.81 % ID/g and 1.80 % ID/g and 0.55 % ID/g and 0.60 % ID/g, the “Ex vivo biodistribution Bone” value ([2]; + IR (10 Gy)) was 0.31 % ID/g and 0.16 % ID/g and 0.19 % ID/g and the “Ex vivo biodistribution Kidney” value ([2]; + IR (10 Gy)) was 4.66 % ID/g and 1.03 % ID/g and 3.67 % ID/g. The “Ex vivo biodistribution Large intestine” value ([2]; + IR (10 Gy)) was 5.21 % ID/g and 3.30 % ID/g and 5.86 % ID/g, the “Ex vivo biodistribution Liver” value ([2]; + IR (10 Gy)) was 9.16 % ID/g and 5.93 % ID/g and 6.67 % ID/g and the “Ex vivo biodistribution Muscle” value ([2]; + IR (10 Gy)) was 0.63 % ID/g and 0.29 % ID/g and 0.48 % ID/g. For the same compound, the “Ex vivo biodistribution Pancreas” value ([2]; + IR (10 Gy)) was 1.89 % ID/g and 1.59 % ID/g and 1.84 % ID/g, the “Ex vivo biodistribution Skin” value ([2]; + IR (10 Gy)) was 0.67 % ID/g and 0.23 % ID/g and 0.33 % ID/g and the “Ex vivo biodistribution Small intestine” value ([2]; + IR (10 Gy)) was 15.58 % ID/g and 9.80 % ID/g and 19.97 % ID/g. For the same compound, the “Ex vivo biodistribution Spleen” value ([2]; + IR (10 Gy)) was 0.77 % ID/g and 0.73 % ID/g and 0.82 % ID/g, the “Ex vivo biodistribution Stomach” value ([2]; + IR (10 Gy)) was 0.38 % ID/g and 0.36 % ID/g and 0.64 % ID/g and the “Ex vivo biodistribution Bone” value ([2]; + block (excess cold olaparib)) was 2.17 % ID/g and 0.47 % ID/g and 1.27 % ID/g. For the same compound, the “Ex vivo biodistribution Kidney” value ([2]; + block (excess cold olaparib)) was 4.16 % ID/g and 1.26 % ID/g and 3.32 % ID/g, the “Ex vivo biodistribution Large intestine” value ([2]; + block (excess cold olaparib)) was 5.00 % ID/g and 2.91 % ID/g and 4.06 % ID/g and the “Ex vivo biodistribution Liver” value ([2]; + block (excess cold olaparib)) was 9.79 % ID/g and 3.62 % ID/g and 6.88 % ID/g. The “Ex vivo biodistribution Muscle” value ([2]; + block (excess cold olaparib)) was 0.88 % ID/g and 0.28 % ID/g and 0.65 % ID/g, the “Ex vivo biodistribution Pancreas” value ([2]; + block (excess cold olaparib)) was 10.22 % ID/g and 4.56 % ID/g and 10.82 % ID/g and the “Ex vivo biodistribution Skin” value ([2]; + block (excess cold olaparib)) was 1.16 % ID/g. The “Ex vivo biodistribution Small intestine” value ([2]; + block (excess cold olaparib)) was 46.04 % ID/g and 0.45 % ID/g and 11.70 % ID/g, the “Ex vivo biodistribution Spleen” value ([2]; + block (excess cold olaparib)) was 6.43 % ID/g and 2.80 % ID/g and 7.93 % ID/g and the “Ex vivo biodistribution Stomach” value ([2]; + block (excess cold olaparib)) was 0.94 % ID/g and 0.30 % ID/g and 0.49 % ID/g. The “Ex vivo biodistribution Bone” value ([2]; tracer alone) was 1.46 % ID/g and 0.98 % ID/g and 1.26 % ID/g and 3.08 % ID/g, the “Ex vivo biodistribution Kidney” value ([2]; tracer alone) was 4.32 % ID/g and 2.05 % ID/g and 4.91 % ID/g and 5.22 % ID/g and the “Ex vivo biodistribution Large intestine” value ([2]; tracer alone) was 4.99 % ID/g and 4.50 % ID/g and 4.14 % ID/g and 8.14 % ID/g. For the same compound, the “Ex vivo biodistribution Liver” value ([2]; tracer alone) was 11.78 % ID/g and 5.79 % ID/g and 10.32 % ID/g and 22.63 % ID/g, the “Ex vivo biodistribution Muscle” value ([2]; tracer alone) was 0.65 % ID/g and 0.45 % ID/g and 0.63 % ID/g and 1.44 % ID/g and the “Ex vivo biodistribution Pancreas” value ([2]; tracer alone) was 9.32 % ID/g and 8.12 % ID/g and 7.87 % ID/g and 13.16 % ID/g. For the same compound, the “Ex vivo biodistribution Skin” value ([2]; tracer alone) was 0.02 % ID/g and 0.55 % ID/g and 0.77 % ID/g and 1.54 % ID/g, the “Ex vivo biodistribution Small intestine” value ([2]; tracer alone) was 12.27 % ID/g and 17.29 % ID/g and 11.58 % ID/g and 13.70 % ID/g and the “Ex vivo biodistribution Spleen” value ([2]; tracer alone) was 9.84 % ID/g and 6.13 % ID/g and 8.40 % ID/g and 15.10 % ID/g. For the same compound, the “Ex vivo biodistribution Stomach” value ([2]; tracer alone) was 1.55 % ID/g and 0.63 % ID/g and 1.14 % ID/g and 3.42 % ID/g, the “tumour uptake (group mean)” value ([2]; excess cold olaparib) was 1.00±0.17 and the “tumour uptake (group mean)” value ([2]; tracer alone) was 2.59±0.32 % ID/g.
